{"source": "paper PMC9848351", "about": "“Discovery of new pyridine-quinoline hybrids as competitive and non-competitive PIM-1 kinase inhibitors with apoptosis induction and caspase 3/7 activation capabilities” (Journal of Enzyme Inhibition and Medicinal Chemistry, 2023)", "key": {"[1]": {"tested_on": "normal human lung fibroblast Wi-38 cell line", "experiment": "MTT cytotoxicity on normal cells", "format": "cell-based", "conditions": "for EC50 / IC50: Homo sapiens; for EC50 / Wi-38 EC100: Wi-38, 72 h, MTT, mean ± SEM; for EC50: 50% cell viability; for IC50: Wi-38, MTT, read-out: IC50 on human lung fibroblasts (Wi-38); for Wi-38 EC100: safe dose, 100% cell viability", "outline": "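Wi-38 fibroblasts in DMEM with 10% FBS were seeded at 5x10^3 cells/well, left 24 h to attach, then exposed to serial compound concentrations for 72 h at 37 °C, 5% CO2. MTT was added for 3 h, formazan dissolved in DMSO and absorbance read at 570 nm. IC50 and EC100 (safe dose) were estimated from the concentration series.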"}, "Caco-2": {"tested_on": "Caco-2", "experiment": "Flow cytometric annexin V/PI analysis of apoptosis, Caco-2", "format": "cell-based", "conditions": "IC50 of compound, 72 h, mean ± SEM", "procedure": "(§1) The apoptosis-dependent […] was determined by quantification of annexin-stained apoptotic cells using the FITC signal detector (FL1) against the phycoerythrin emission signal detector (FL2) (Supplementary Page S55). […]\nMTT method was used for assaying cell viability 25. Twenty microliters of 5 mg/ml MTT (Sigma, USA) was added to each well and the plate was incubated at 37 °C for 3 h. Then MTT solution was removed, 100 µl DMSO was used and the absorbance of each well was measured with a microplate reader ( BMG LabTech, […]\nGermany) at 570 nm. […]\n(§2) Graphpad Instat software.\n(§3) Determination of the anticancer activity\nAnticancer effect of the above-mentioned compounds was evaluated using four human […]\ncancer cell lines. […]\nAll cancer cells (5x10^3 cells/well) were seeded in sterile\n96-well plates. After 24h, serial concentrations of the tested compounds and Dox were incubated with four cancer cell lines for 72 h at 37 °C in 5% CO2 incubator. MTT method was done as described above. The Graphpad Instat software was used for calculating the half maximal inhibitory concentration (IC50) values. […]\n(§4) Flow cytometric analysis of apoptosis\n(§5) Caco-2, PC-3 and NFS-60 cell lines. After trypsinization, the untreated and treated cells were incubated with annexin V/PI for 15 min. Then cells were fixed and incubated with streptavidin-fluorescein (5 µg/mL) for 15 min. The apoptosis-dependent anticancer effect was determined by quantification of annexin-stained apoptotic cells using the FITC signal detector (FL1) against the phycoerythrin emission signal detector (FL2). […]"}, "NFS-60": {"tested_on": "NFS-60", "experiment": "Flow cytometric annexin V/PI analysis of apoptosis, NFS-60", "format": "cell-based, human", "conditions": "IC50 of compound, 72 h, mean ± SEM", "procedure": "as §1\nMTT method was used for assaying cell viability 25. Twenty microliters of 5 mg/ml MTT (Sigma, USA) was added to each well and the plate was incubated at […]\n37 °C for 3 h. […]\nas §2, §3\nAnticancer effect of the above-mentioned compounds was evaluated using four human cancer cell lines. Colon cancer cells (Caco-2) were maintained in DMEM (Lonza, USA) containing 10% FBS while myeloid leukemia cell line (NFS-60), liver cancer cell line (HepG-2) and prostate cancer cell line (PC-3) were cultured in RPMI-1640 (Lonza, USA) supplemented with 10% FBS. All cancer cells (5x10^3 cells/well) were seeded in sterile 96-well plates. After 24h, serial concentrations of the tested compounds and Dox were incubated with four cancer cell lines for 72 h at 37 °C in 5% CO2 incubator. MTT method was done as described above. The Graphpad Instat software was used for calculating the half maximal inhibitory concentration (IC50) values. […]\nas §4, §5"}, "PIM-2 kinase": {"biological_target": "PIM-2 kinase (Homo sapiens, UniProt Q9P1W9)", "sequence (Q9P1W9 whole entry)": "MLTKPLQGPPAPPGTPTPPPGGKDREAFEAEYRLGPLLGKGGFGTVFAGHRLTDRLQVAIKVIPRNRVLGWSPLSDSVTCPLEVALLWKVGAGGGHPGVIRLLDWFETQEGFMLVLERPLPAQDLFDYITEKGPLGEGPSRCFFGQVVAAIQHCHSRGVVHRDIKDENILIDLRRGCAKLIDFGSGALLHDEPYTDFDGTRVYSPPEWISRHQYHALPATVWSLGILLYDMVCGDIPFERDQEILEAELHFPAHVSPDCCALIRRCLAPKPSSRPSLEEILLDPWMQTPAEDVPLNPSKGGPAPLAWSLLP", "experiment": "PIM-2 kinase inhibitory activity (Promega kinase assay kit)"}, "[2]": {"tested_on": "caspase 3/7 in HepG-2 cells", "experiment": "Caspase 3/7 activation assay (Apo-ONE kit)", "format": "cell-based, human", "conditions": "caspase 3/7, relative to untreated HepG2 cells; mean ± SEM", "text": "The percentage of caspase 3/7 activation was quantified using the Apo-ONE ® caspase 3/7 kit following the manufacturer’s instructions[27] (Supplementary Page S56).\nIt’s a fluorescence assay that measures caspase-3 and −7 activities. Caspase 3/7 activators are well known as apoptotic inducers.\nCaspase 3/7 activation assay\nThe Apo-ONE ® caspase 3/7 kit following the manufacturer’s instructions was used for quantifying the percentage of caspase 3/7 activation. The fluorescence substrate present in the kit was cut by caspases to produce fluorescence signal. This signal was measured by the fluorescence omega microplate reader (BMG LabTech, Germany) at 490 nm excitation and 520 nm emission.\nData were expressed as mean ± standard error of the mean (SEM). Statistical significance was estimated by the multiple comparisons Tukey post-hoc analysis of variance (ANOVA) using the SPSS16 program. When p < 0.05, the differences were marked as statistically significant.\nPIM-1 and PIM-2 kinase inhibitory activity\nPIM-1 and PIM-2 kinase utilizing PIM-1 and PIM-2 Kinase Assay Kit – Promega Corporation catalog #V4032, following the manufacturer’s instructions 26 […]\nInformation Classification: General"}}, "data": [{"smiles": "N#Cc1c(-c2cc3cc(Cl)ccc3nc2N2CCOCC2)cc(-c2cccc(O)c2)[nH]c1=O", "note": "[5b, 4-(6-Chloro-2-morpholin-4-yl-quinolin-3-yl)-6-(3-hydroxyphenyl)-2-oxo-1,2-dihydropyridine-3-carbonitrile]", "values": [{"measurement": "EC50", "setting": "[1]", "value": "0.171 ± 0.002", "unit": "µM"}, {"measurement": "IC50", "setting": "[1]", "value": "> 0.099", "unit": "µM"}, {"measurement": "Wi-38 EC100", "setting": "[1]", "value": "0.048 ± 0.0001", "unit": "µM"}, {"measurement": "total percentage of the apoptotic cell population, Caco-2", "setting": "Caco-2", "value": "44.045 ± 0.185", "unit": "%"}, {"measurement": "total percentage of the apoptotic cell population, NFS-60", "setting": "NFS-60", "value": "54.2 ± 0.47", "unit": "%"}, {"measurement": "IC50", "setting": "PIM-2 kinase", "value": 0.67, "unit": "µM"}]}, {"smiles": "COc1ccc2nc(N3CCOCC3)c(-c3cc(-c4cccc(O)c4)[nH]c(=O)c3C#N)cc2c1", "note": "[5c, 6-(3-Hydroxyphenyl)-4-(6-methoxy-2-morpholin-4-yl-quinolin-3-yl)-2-oxo-1,2-dihydropyridine-3-carbonitrile]", "values": [{"measurement": "EC50", "setting": "[1]", "value": "0.717 ± 0.002", "unit": "µM"}, {"measurement": "IC50", "setting": "[1]", "value": "> 0.099", "unit": "µM"}, {"measurement": "Wi-38 EC100", "setting": "[1]", "value": "0.361 ± 0.014", "unit": "µM"}, {"measurement": "total percentage of the apoptotic cell population, Caco-2", "setting": "Caco-2", "value": "33.89 ± 0.175", "unit": "%"}, {"measurement": "total percentage of the apoptotic cell population, NFS-60", "setting": "NFS-60", "value": "51.53 ± 0.09", "unit": "%"}, {"measurement": "IC50", "setting": "PIM-2 kinase", "value": 1.66, "unit": "µM"}]}, {"smiles": "N#Cc1c(-c2cc3ccccc3[nH]c2=O)cc(-c2cccc(O)c2)[nH]c1=O", "note": "[13a, 6-(3-Hydroxyphenyl)-2-oxo-4-(2-oxo-1,2-dihydroquinolin-3-yl)-1,2-dihydropyridine-3-carbonitrile]", "values": [{"measurement": "EC50", "setting": "[1]", "value": "0.0255 ± 0.004", "unit": "µM"}, {"measurement": "Wi-38 EC100", "setting": "[1]", "value": "0.0145 ± 0.0001", "unit": "µM"}, {"measurement": "total percentage of the apoptotic cell population, Caco-2", "setting": "Caco-2", "value": "58.28 ± 0.26", "unit": "%"}, {"measurement": "total percentage of the apoptotic cell population, NFS-60", "setting": "NFS-60", "value": "59.23 ± 0.04", "unit": "%"}]}, {"smiles": "COc1ccc2[nH]c(=O)c(-c3cc(-c4cccc(O)c4)[nH]c(=O)c3C#N)cc2c1", "note": "[13c, 6-(3-Hydroxyphenyl)-4-(6-methoxy-2-oxo-1,2-dihydroquinolin-3-yl)-2-oxo-1,2-dihydropyridine-3-carbonitrile]", "values": [{"measurement": "EC50", "setting": "[1]", "value": "0.0348 ± 0.003", "unit": "µM"}, {"measurement": "Wi-38 EC100", "setting": "[1]", "value": "0.0242 ± 0.001", "unit": "µM"}, {"measurement": "total percentage of the apoptotic cell population, Caco-2", "setting": "Caco-2", "value": "51.17 ± 0.33", "unit": "%"}, {"measurement": "total percentage of the apoptotic cell population, NFS-60", "setting": "NFS-60", "value": "58.83 ± 0.36", "unit": "%"}]}, {"smiles": "N#Cc1c(-c2cc3ccccc3[nH]c2=O)cc(-c2cccc(O)c2)nc1S", "note": "[14a, 6-(3-Hydroxyphenyl)-2-mercapto-4-(2-oxo-1,2-dihydroquinolin-3-yl)pyridine-3-carbonitrile]", "values": [{"measurement": "EC50", "setting": "[1]", "value": "0.299 ± 0.004", "unit": "µM"}, {"measurement": "Wi-38 EC100", "setting": "[1]", "value": "0.134 ± 0.003", "unit": "µM"}, {"measurement": "total percentage of the apoptotic cell population, Caco-2", "setting": "Caco-2", "value": "42.17 ± 0.82", "unit": "%"}, {"measurement": "total percentage of the apoptotic cell population, NFS-60", "setting": "NFS-60", "value": "42.005 ± 0.32", "unit": "%"}, {"measurement": "Fold increase in caspase activity", "setting": "[2]", "value": "1.86 ± 0.11", "unit": "fold"}]}]}
